Source: patent US11040963B2 (priority 2017, dated 2021)

Key:
[1] = target: HA H1 A/California/07/09 (Influenza A virus (A/California/07/2009(H1N1)), UniProt C3W5X2); experiment: biochemical; conditions: Competition binding (AlphaLISA), pIC50 H1 A/California/07/09
[2] = target: HA H5 A/Vietnam/1203/04 (Influenza A virus (A/Vietnam/1203/2004(H5N1)), UniProt Q5EP31); experiment: biochemical; conditions: Competition binding (AlphaLISA), pIC50 H5 A/Vietnam/1203/04
[3] = tested on: H1N1 A/New Caledonia/20/99; experiment: microbe, parasite or virus in culture; assay type: cell-based, influenza A virus; conditions: Influenza A virus, H1N1, MDCK, 96 h, read-out: Virus neutralization assay (VNA), pEC50 H1N1 A/New Caledonia/20/99 (converted)
[4] = target: HA H1 A/New Caledonia/20/99 (Influenza A virus (A/New Caledonia/20/1999(H1N1)), UniProt Q6WG00); experiment: biochemical; conditions: Competition binding (AlphaLISA), pIC50 H1 A/New Caledonia/20/99
[5] = in vitro; conditions: dog, Cytotoxicity (pCC50) MDCK
[6] = tested on: H1N1 A/California/07/09; experiment: microbe, parasite or virus in culture; assay type: cell-based, influenza A virus; conditions: Influenza A virus, H1N1, MDCK, 96 h, read-out: Virus neutralization assay (VNA), pEC50 H1N1 A/California/07/09 (converted)
[7] = tested on: H5N1 A/Vietnam/1203/04; experiment: microbe, parasite or virus in culture; assay type: cell-based, influenza A virus; conditions: Influenza A virus, H5N1, MDCK, 96 h, read-out: Virus neutralization assay (VNA), pEC50 H5N1 A/Vietnam/1203/04, MDCK cells, 96 h, CPE by ATPlite (converted); average of repeats

Row | Compound | IC50 [1] [nM] | IC50 [2] [nM] | EC50 [3] [nM] | IC50 [4] [nM] | CC50 [5] [nM] | EC50 [6] [nM] | EC50 [7] [nM]
1 | COC(=O)[C@H](c1ccccc1)N1CCN(C(=O)c2cccc(-c3nc4cc(C(F)(F)F)ccc4o3)c2)[C@H](C(N)=O)C1 [Example 46] | 31.6 | 794 | 158 | 31.6 | 39800 | 200 | 15800
2 | Cc1nnc(C(c2ccccc2)N2CCN(C(=O)c3cccc(-c4nc5cc(F)ccc5o4)c3)CC2)o1 (stereo not drawn) [Example 47] | 79.4 | 10000 | 316 | 79.4 | 31600 | 398 | 15800
3 | Cc1nnc(C(c2ccccc2)N2CCN(C(=O)c3cc(-c4nc5cc(OC(F)(F)F)ccc5o4)ccn3)CC2)s1 (stereo not drawn) [Example 49] | 251 | 3980 | 316 | 200 | 15800 | 501 | 31600
4 | COC(=O)C(c1ccccc1)N1CCN(C(=O)c2cccc(-c3nc4cccnc4o3)c2)CC1 (stereo not drawn) [Example 50] | 63.1 | 3980 | 316 | 63.1 | > 50100 | 794 | 31600
5 | CC(=O)Nc1ccc2oc(-c3cccc(C(=O)N4CCN(C(c5ccccc5)c5nnc(C)o5)CC4)c3)nc2c1 (stereo not drawn) [Example 51] | 15.8 | 631 | 251 | 12.6 | 50100 | 251 | 15800
6 | Cn1ccc(C(c2ccccc2)N2CCN(C(=O)c3cccc(-c4nc5cc(C(F)(F)F)ccc5o4)c3)CC2)n1 (stereo not drawn) [Example 53] | 5010 | 20000 | 398 | 3980 | > 50100 | 1000 | > 50100
7 | COC(=O)C(c1ccccc1)N1CCN(C(=O)c2cncc(-c3nc4ccc(OC)cc4s3)c2)CC1 (stereo not drawn) [Example 54] | 100 | 398 | 398 | 50.1 | 50100 | 1260 | 6310
8 | COc1ccc2nc(-c3cccc(C(=O)N4CCN(C(C(=O)NCCCN)c5ccccc5)CC4)c3)sc2c1 (stereo not drawn) [Example 55] | 63.1 | 631 | 398 | 50.1 | > 50100 | 2000 | 10000
9 | COc1ccc2nc(-c3cccc(C(=O)N4CCN(C(c5ccccc5)c5nncs5)CC4)c3)sc2c1 (stereo not drawn) [Example 56] | 398 | 3160 | 398 | 158 | > 50100 | 5010 | > 50100
10 | O=C(c1cccc(-c2nc3cc(C(F)(F)F)ccc3o2)c1)N1CCN(C(c2ccccc2)c2nnc(C3(O)CCC3)o2)CC1 (stereo not drawn) [Example 57] | 50.1 | 2510 | 501 | 79.4 | 39800 | 251 | 20000
11 | COC(=O)[C@@H](c1ccccc1)N1CCN(C(=O)c2cccc(-c3nc4cc(C(F)(F)F)ccc4o3)c2)[C@@H](CC(N)=O)C1 [Example 58] | 39.8 | 1000 | 398 | 31.6 | 39800 | 398 | 5010
12 | COC(=O)C(c1ccccc1)N1CCN(C(=O)c2cccc(-c3nc4cc(Cl)ccc4o3)c2)CC1 (stereo not drawn) [Example 59] | 63.1 | 2000 | 501 | 63.1 | > 50100 | 398 | 20000
13 | COC(=O)C(c1ccccc1)N1CCN(C(=O)c2cccc(-c3nc4ccc(OC)cc4o3)c2)CC1 (stereo not drawn) [Example 60] | 63.1 | 1580 | 501 | 39.8 | 25100 | 631 | 12600
14 | COc1ccc2nc(-c3cccc(C(=O)N4CCN([C@H](c5ccccc5)c5nnn(C)n5)CC4)c3)sc2c1 [Example 61] | 79.4 | 501 | 501 | 63.1 | 39800 | 631 | 2000
15 | COC(=O)[C@H](c1ccccc1)N1CCN(C(=O)c2cccc(-c3nc4cc(C(F)(F)F)ccc4o3)c2)[C@@H](C(N)=O)C1 [Example 62] | 100 | 3160 | 631 | 100 | 39800 | 631 | 20000
16 | Cc1nnc([C@@H](c2ccccc2)N2CCN(C(=O)c3cc(F)cc(-c4nc5cc(C(F)(F)F)ccc5o4)c3)CC2)o1 [Example 63] | 158 | 15800 | 501 | 158 | > 50100 | 631 | > 50100
17 | CNC(=O)c1cnc(-c2cccc(C(=O)N3CCN(C(C(=O)OC)c4ccccc4)CC3)c2)s1 (stereo not drawn) [Example 64] | 79.4 | 2000 | 501 | 79.4 | > 50100 | 1000 | 25100
18 | COC(=O)C(c1ccccn1)C1CCN(C(=O)c2cccc(-c3nc4ccc(OC)cc4s3)c2)CC1 (stereo not drawn) [Example 66] | 100 | 794 | 501 | 63.1 | 20000 | 1000 | 12600
19 | COC(=O)[C@@H](c1ccccc1)N1CCN(C(=O)c2cccc(-c3nc4cc(C(F)(F)F)ccc4o3)c2)[C@H](CC(N)=O)C1 [Example 67] | 50.1 | 3160 | 631 | 50.1 | 39800 | 794 | 31600
20 | COC(=O)C(c1cccnc1)N1CCN(C(=O)c2cccc(-c3nc4ccc(OC)cc4s3)c2)CC1 (stereo not drawn) [Example 68] | 200 | 1260 | 501 | 100 | 10000 | 2000 | 20000
21 | [2H]C([2H])([2H])c1nnc(C(c2ccccc2)N2CCN(C(=O)c3cccc(-c4nc5cc(C(F)(F)F)ccc5o4)c3)CC2)o1 (stereo not drawn) [Example 70] | 158 | 3980 | 631 | 158 | > 50100 | 501 | > 50100
22 | COc1ccc2nc(-c3cccc(C(=O)N4CCN(C(c5ccccc5)c5nnc(C)o5)CC4)c3)sc2c1 (stereo not drawn) [Example 71] | 100 | 1000 | 631 | 100 | > 50100 | 794 | 7940
23 | COc1ccc2nc(-c3cccc(C(=O)N4CCN(C(c5ccccc5)c5nnn(C)n5)CC4)c3)sc2c1 (stereo not drawn) [Example 72] | 200 | 1580 | 631 | 126 | 50100 | 794 | 39800
24 | Cc1nnc(C(c2ccccc2)N2CCN(C(=O)c3cccc(-c4nc5cc(NS(C)(=O)=O)ccc5o4)c3)CC2)o1 (stereo not drawn) [Example 73] | 15.8 | 1260 | 794 | 25.1 | > 50100 | 794 | > 50100
25 | COc1ccc2nc(-c3cccc(C(=O)N4CCN(C(c5ccccc5)c5ncco5)CC4)c3)sc2c1 (stereo not drawn) [Example 74] | 200 | 2000 | 631 | 79.4 | > 50100 | 1000 | 6310
26 | NCc1nnc(C(c2ccccc2)N2CCN(C(=O)c3cccc(-c4nc5cc(C(F)(F)F)ccc5o4)c3)CC2)o1 (stereo not drawn) [Example 75] | 200 | 3980 | 631 | 158 | 10000 | 1000 | 7940
27 | Cc1nnc([C@@H](c2ccccc2)N2CCN(C(=O)c3cccc(-c4cnc5ccccc5c4)c3)CC2)o1 [Example 76] | 200 | 10000 | 631 | 158 | 15800 | 1260 | 31600
28 | Cc1nnc([C@@H](c2ccccc2)N2CCN(C(=O)c3cccc(-c4nc5cccc(C)c5o4)c3)CC2)o1 [Example 77] | 251 | 10000 | 631 | 200 | 3980 | 1260 | > 50100
29 | COC(=O)C(c1ccccc1)N1CCN(C(=O)c2cccc(-c3nc4ccc(OC)cc4s3)n2)CC1 (stereo not drawn) [Example 78] | 631 | 25100 | 631 | 316 | > 50100 | 1260 | 50100
30 | COc1ccc2nc(-c3cccc(C(=O)N4CCN(C(c5ccccc5)c5nnco5)CC4)c3)sc2c1 (stereo not drawn) [Example 79] | 200 | 1260 | 631 | 79.4 | > 50100 | 1580 | 12600
